pEC50: −log10 of the molar value.
Key:
APP/PS1 mouse [1] = details: APP/PS1 double transgenic mouse; cited from earlier work
APP/PS1 mouse [2] = details: APP/PS1 double transgenic mouse; cited from earlier work; remark: listed apart in the source
[3] = cited from earlier work
[4] = cited from earlier work; remark: listed apart in the source
CBP = biological target: T1, CBP (Homo sapiens, UniProt Q92793); assay: acetyltransferase activity assay (Enzo Life Sciences), CBP; type: biochemical
T1 construct: the catalytic domain of human CBP, PCAF, p300 and GCN5 (Enzo Life Sci., USA) can be used; purchased Enzo Life Sciences
T1 sequence (Q92793 1323-1700 limits assumed): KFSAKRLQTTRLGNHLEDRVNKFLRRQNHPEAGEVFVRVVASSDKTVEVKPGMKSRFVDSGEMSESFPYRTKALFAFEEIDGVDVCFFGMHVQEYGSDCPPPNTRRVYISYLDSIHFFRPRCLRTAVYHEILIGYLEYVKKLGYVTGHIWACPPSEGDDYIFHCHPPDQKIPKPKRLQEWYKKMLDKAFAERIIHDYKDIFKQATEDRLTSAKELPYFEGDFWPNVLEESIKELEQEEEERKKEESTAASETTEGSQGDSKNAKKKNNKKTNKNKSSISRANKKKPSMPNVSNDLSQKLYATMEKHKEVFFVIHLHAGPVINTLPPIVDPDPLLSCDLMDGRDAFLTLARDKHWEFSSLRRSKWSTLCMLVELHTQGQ
Procedure: (§1) Commercial human HATs (CBP, p300, GCN5, PCAF (Enzo Life Sciences), and Tip60 (SignalChem)) were assayed in an acetyltransferase activity assay (Enzo Life Sciences, Cat. No. ADI-907-026). Each well contained, in addition to a HAT, histone 3 as the acetyl acceptor, acetyl-CoA as the acetyl donor in the reaction mixture and compounds (1% DMSO) at the appropriate concentrations. The reaction was carried out at room temperature. Enzyme activity was measured by monitoring the breakage of the substrate acetyl-CoA by HAT using a proprietary detection mixture. The fluorescent signal was measured using a Tecan microplate reader (excitation: 380 nm, emission: 520 nm). The assay methodology was adopted as it provided a 10-fold higher signal/background ratio and was more sensitive than other assays. […] Compound 10 had no effect with either P300 or CBP (FIG. 13).

p300 = biological target: T2, p300 (Homo sapiens, UniProt Q09472); assay: acetyltransferase activity assay (Enzo Life Sciences), P300; type: biochemical; details: for pEC50: Table 1, activation of P300 according to b440
T2 construct: the catalytic domain of human CBP, PCAF, p300 and GCN5 (Enzo Life Sci., USA) can be used; purchased Enzo Life Sciences
T2 sequence (Q09472 1287-1663 limits assumed): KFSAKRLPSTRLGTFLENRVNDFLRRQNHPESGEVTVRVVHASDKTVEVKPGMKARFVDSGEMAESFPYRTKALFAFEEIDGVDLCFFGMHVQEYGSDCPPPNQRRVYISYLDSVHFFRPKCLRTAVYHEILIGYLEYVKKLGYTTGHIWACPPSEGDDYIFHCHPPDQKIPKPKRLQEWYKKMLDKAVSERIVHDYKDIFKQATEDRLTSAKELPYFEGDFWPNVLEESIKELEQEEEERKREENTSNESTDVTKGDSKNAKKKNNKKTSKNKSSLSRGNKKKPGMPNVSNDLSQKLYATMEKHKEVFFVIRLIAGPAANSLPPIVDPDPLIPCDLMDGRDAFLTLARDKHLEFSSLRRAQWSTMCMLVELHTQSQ
Procedure: as §1

[5] = in vivo; cited from earlier work
Tip60 = biological target: T3, Tip60 (Homo sapiens, UniProt Q92993); assay: acetyltransferase activity assay (Enzo Life Sciences), Tip60; type: biochemical; details: histone 3 acetyl acceptor, acetyl-CoA, room temperature
T3 construct: purchased SignalChem
T3 sequence (Q92993 whole entry): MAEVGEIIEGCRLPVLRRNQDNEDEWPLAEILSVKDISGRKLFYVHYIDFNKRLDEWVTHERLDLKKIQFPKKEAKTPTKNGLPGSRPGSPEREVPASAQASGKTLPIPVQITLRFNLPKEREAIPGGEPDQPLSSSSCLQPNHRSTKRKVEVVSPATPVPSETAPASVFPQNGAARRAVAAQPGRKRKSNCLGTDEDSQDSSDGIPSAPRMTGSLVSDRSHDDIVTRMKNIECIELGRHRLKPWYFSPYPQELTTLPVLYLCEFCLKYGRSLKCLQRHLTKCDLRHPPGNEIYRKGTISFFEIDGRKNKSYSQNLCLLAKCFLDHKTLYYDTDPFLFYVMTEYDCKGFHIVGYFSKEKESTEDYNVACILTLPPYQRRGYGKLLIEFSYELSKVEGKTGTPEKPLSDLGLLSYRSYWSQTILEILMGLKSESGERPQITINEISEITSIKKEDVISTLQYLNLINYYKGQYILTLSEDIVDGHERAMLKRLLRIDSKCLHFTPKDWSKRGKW
Procedure: as §1

[6] = system: Aβ-induced reduction of LTP; assay: rescue of Aβ-induced reduction of LTP
From the text: Synaptic dysfunction is a major hallmark of AD (Histol Histopathol, 1995. 10(2): p. 509-19; herein incorporated by reference in its entirety). An aspect of the drug screening protocol can include a measurement of the effect of compounds onto synaptic function. The APP/PS1 mouse presents an impairment of LTP by the age of 3 months (Ann Neurol, 2004. 55(6): p. 801-14; herein incorporated by reference in its entirety), and therefore permits a relatively fast assessment of synaptic function without waiting a long time for mice aging. LTP can be examined because it is a type of synaptic plasticity thought to underlie learning and memory. D rescues the Aβ-induced reduction of LTP, and other compounds can also be screened to identify those that can re-establish normal LTP. The compounds can be applied for 30 min. Controls can be performed on slices from APP/PS1 mice treated with vehicle, and WT mice treated with compound or vehicle. If the compounds re-establish normal LTP in APP/PS1 slices, one can conclude that the compounds rescue impairment of synaptic plasticity in APP/PS1 mice. Cognitive impairment can also be investigated (see Example 5).

[7] = cited from earlier work; remark: listed apart in the source
[8] = in vivo; cited from earlier work; remark: listed apart in the source
histone acetylation = details: cited from earlier work
[9] = system: PC12 cells, sympathetic neurons and hippocampal neurons; details: cited from earlier work

**Q.** Which results are given for `CC(/C=C/C(=O)NO)=C\[C@@H](C)C(=O)c1ccc(N(C)C)cc1` [TSA]?
**A.** LTP (APP/PS1 mouse [1]): ameliorates; contextual fear conditioning (FC) / contextual learning (APP/PS1 mouse [2]): ameliorates

**Q.** Which solubility [3] does the source give for `CCOc1ccccc1C(=O)Nc1ccc(Cl)c(C(F)(F)F)c1` [CTB] here?
**A.** insoluble

**Q.** And the membrane permeability [4]?
**A.** membrane-impermeable

**Q.** For `CCOc1cccc(OCCN(C)C)c1/C=N/c1ccc(Cl)c(C(F)(F)F)c1` [Compound 17, 4-chloro-N-[2-(2-(dimethylamino)ethoxy)-6-ethoxybenzylidene]-3-(trifluoromethyl)aniline], which “effect on CBP, initial screening (FIG. 13)” value (“effect on CBP” for short) (CBP) is on record?
**A.** activated only CBP

**Q.** Which results are given for `CCOc1cccc(OCCN2CCNCC2)c1C(=O)Nc1ccc(Cl)c(C(F)(F)F)c1` [Compound 10, N-[4-chloro-3-(trifluoromethyl)phenyl]-2-ethoxy-6-[2-(piperazin-1-yl)ethoxy]benzamide]?
**A.** effect on CBP, initial screening (FIG. 13) (CBP): no effect; pEC50 (p300): 8.68; effect on P300, initial screening (FIG. 13) (p300): no effect

**Q.** Which brain/blood ratio [5] does the source give for `Cc1cc(-c2ccccc2)nnc1NCCN1CCOCC1` [minaprine] here?
**A.** > 2

**Q.** With `CCOc1cccc(O)c1C(=O)Nc1ccc(Cl)c(C(F)(F)F)c1` [Compound 25, N-[4-chloro-3-(trifluoromethyl)phenyl]-2-ethoxy-6-hydroxybenzamide] as the compound, how does the “effect on CBP” value (CBP) read?
**A.** activated only CBP

**Q.** With `CCOc1cccc(OCCN(CC)CC)c1C(=O)Nc1ccc(Cl)c(C(F)(F)F)c1` [Compound 12, N-(4-chloro-3-(trifluoromethyl)phenyl)-2-(2-(diethylamino)ethoxy)-6-ethoxybenzamide] as the compound, how does the pEC50 (p300) read?
**A.** 8.83

**Q.** Which results are given for `COc1ccc(C2CNC(=O)C2)cc1OC1CCCC1` (stereo not shown) [rolipram]?
**A.** LTP (APP/PS1 mouse [1]): ameliorates deficits; contextual fear conditioning (FC) / contextual learning (APP/PS1 mouse [2]): ameliorates deficits

**Q.** With `CCOc1cccc(OCCN2CCCCC2)c1C(=O)Nc1ccc(Cl)c(C(F)(F)F)c1` [Compound 8, N-[4-chloro-3-(trifluoromethyl)phenyl]-2-ethoxy-6-[2-(piperidin-1-yl)ethoxy] benzamide] as the compound, how does the pEC50 (p300) read?
**A.** 8.56

**Q.** With `CCOc1cccc(OCCCN(C)C)c1C(=O)Nc1ccc(Cl)c(C(F)(F)F)c1` [Compound 13, N-[4-chloro-3-(trifluoromethyl)phenyl]-2-[3-(dimethylamino)propoxy]-6-ethoxybenzamide] as the compound, how does the pEC50 (p300) read?
**A.** 8.88

**Q.** With `CCOc1cccc(OCCN(C)C)c1C(=O)Nc1ccc(Cl)c(C(F)(F)F)c1` [Compound D, N-[4-chloro-3-(trifluoromethyl)phenyl]-2-[2-(dimethyl-amino)ethoxy]-6-ethoxybenzamide] as the compound, how does the pEC50 (CBP; histone 3 acetyl acceptor, acetyl-CoA, room temperature) read?
**A.** 8.35

**Q.** And the pEC50 (p300)?
**A.** 8.42

**Q.** What about the pEC50 (Tip60) of the same compound?
**A.** < 3.70

**Q.** What about the “Aβ-induced reduction of LTP” value [6] of the same compound?
**A.** rescues

**Q.** What about the solubility [3] of the same compound?
**A.** soluble

**Q.** What about the membrane permeability [4] of the same compound?
**A.** membrane permeable

**Q.** And the BBB permeability [7]?
**A.** BBB permeant

**Q.** What about the “safety in acute toxicity tests” value [8] of the same compound?
**A.** safe

**Q.** What about the histone acetylation (histone acetylation) of the same compound?
**A.** increases histone acetylation

**Q.** With `CCOc1ccc(OCCN(C)C)c(C(=O)Nc2ccc(Cl)c(C(F)(F)F)c2)c1` [Compound 18, N-(4-chloro-3-(trifluoromethyl)phenyl)-2-(2-(dimethylamino)ethoxy)-5-ethoxybenzamide] as the compound, how does the “effect on CBP” value (CBP) read?
**A.** activated only CBP

**Q.** And the pEC50 (p300)?
**A.** 8.64

**Q.** Which “protection against Aβ-induced neurotoxicity” value [9] does the source give for `CC(C)(SN=O)[C@H](N)C(=O)O` [S-nitroso penicillamine] here?
**A.** exerts a neuroprotective effect

**Q.** What does the source list for `CCOc1cccc(OCCN(C)C)c1C(=O)NCc1ccc(Cl)c(C(F)(F)F)c1` [Compound 16, N-[4-chloro-3-(trifluoromethyl)benzyl]-2-(2-(dimethylamino)ethoxy)-6-ethoxybenzamide]?
**A.** effect on CBP, initial screening (FIG. 13) (CBP): activated only CBP; pEC50 (p300): 8.74

**Q.** Which “effect on CBP” value (CBP) does the source give for `CCOc1cccc(OCCN2CCN(C)CC2)c1C(=O)Nc1ccc(Cl)c(C(F)(F)F)c1` [Compound 11, N-[4-chloro-3-(trifluoromethyl)phenyl]-2-ethoxy-6-[2-(4-methylpiperazin-1-yl)ethoxy]benzamide] here?
**A.** no effect

**Q.** What about the pEC50 (p300) of the same compound?
**A.** 8.64

**Q.** And the “effect on P300, initial screening (FIG. 13)” value (p300)?
**A.** inhibited

**Q.** With `CCOc1ccc(C(=O)Nc2ccc(Cl)c(C(F)(F)F)c2)c(OCCN(C)C)c1` [Compound 19, N-(4-chloro-3-(trifluoromethyl)phenyl)-2-(2-(dimethylamino)ethoxy)-4-ethoxybenzamide] as the compound, how does the pEC50 (p300) read?
**A.** 8.73

**Q.** With `CCCCCCCCCCCCCCCc1cccc(OCC)c1C(=O)Nc1ccc(Cl)c(C(F)(F)F)c1` [CTPB] as the compound, how does the solubility [3] read?
**A.** insoluble

**Q.** What about the membrane permeability [4] of the same compound?
**A.** membrane-impermeable

**Q.** With `CCOc1cccc(OCCN2CCOCC2)c1C(=O)Nc1ccc(Cl)c(C(F)(F)F)c1` [Compound 9, N-[4-chloro-3-(trifluoromethyl)phenyl]-2-ethoxy-6-(2-morpholinoethoxy) benzamide] as the compound, how does the pEC50 (p300) read?
**A.** 8.68

**Q.** With `CCOc1cccc(O)c1CNc1ccc(Cl)c(C(F)(F)F)c1` [Compound 26, 2-[((4-chloro-3-(trifluoromethyl)phenyl)amino)methyl]-3-ethoxyphenol] as the compound, how does the “effect on CBP” value (CBP) read?
**A.** activated only CBP

Source: US9969677B2, “Histone acetyltransferase modulators and uses thereof” (THE TRUSTEES OF COLUMBIA UNIVERSITY IN THE CITY OF NEW YORK, priority 2010, dated 2018)
